Values after ≈ are worked out from the molar mass of the structure shown. Read-outs that look alike come from different tables or passages of the source.
Tests used:
[1] = test system: Streptococcus faecalis D 3; experiment: in vitro antibacterial test (MIC); assay type: cell-based; conditions: Enterococcus faecalis, D3
[2] = test system: Proteus rettgeri 856; experiment: in vitro antibacterial test (MIC); assay type: cell-based; conditions: Providencia rettgeri
[3] = test system: Proteus morganii 2359; experiment: in vitro antibacterial test (MIC); assay type: cell-based; conditions: Morganella morganii
[4] = test system: Neisseria gonorrhoeae 1317-4; experiment: in vitro antibacterial test (MIC); assay type: cell-based; conditions: 13174
[5] = test system: Clostridium perfringens 194; experiment: microbe, parasite or virus in culture; assay type: cell-based
[6] = test system: Serratia marcescens 344; experiment: in vitro antibacterial test (MIC); assay type: cell-based
[7] = test system: Escherichia coli 16; experiment: in vitro antibacterial test (MIC); assay type: cell-based
[8] = test system: Enterobacter cloacae P 99; experiment: in vitro antibacterial test (MIC); assay type: cell-based; conditions: P99
[9] = test system: Neisseria meningitidis 1316; experiment: in vitro antibacterial test (MIC); assay type: cell-based
[10] = test system: Pseudomonas aeruginosa ATCC 12055; experiment: in vitro antibacterial test (MIC); assay type: cell-based; conditions: ATCC12055
[11] = test system: Streptococcus pneumoniae III/84; experiment: in vitro antibacterial test (MIC); assay type: cell-based
[12] = test system: Escherichia coli 205; experiment: in vitro antibacterial test (MIC); assay type: cell-based
[13] = test system: Proteus morganii 1518; experiment: in vitro antibacterial test (MIC); assay type: cell-based; conditions: Morganella morganii
[14] = test system: Pseudomonas aeruginosa K 799/61; experiment: in vitro antibacterial test (MIC); assay type: cell-based; conditions: K799/61
[15] = test system: Escherichia coli 205 R+TEM; experiment: in vitro antibacterial test (MIC); assay type: cell-based
[16] = test system: Proteus mirabilis 1219; experiment: in vitro antibacterial test (MIC); assay type: cell-based
[17] = test system: Streptococcus pyogenes Aronson; experiment: in vitro antibacterial test (MIC); assay type: cell-based
[18] = test system: Proteus mirabilis 774; experiment: in vitro antibacterial test (MIC); assay type: cell-based
[19] = test system: Haemophilus influenzae NCTC 4560; experiment: in vitro antibacterial test (MIC); assay type: cell-based; conditions: NCTC4560
[20] = test system: Klebsiella pneumoniae 327; experiment: in vitro antibacterial test (MIC); assay type: cell-based
[21] = test system: Bacteroides fragilis L 01; experiment: in vitro antibacterial test (MIC); assay type: cell-based; conditions: L01
[22] = test system: Staphylococcus aureus 10 B; experiment: in vitro antibacterial test (MIC); assay type: cell-based
[23] = test system: Staphylococcus aureus 2999i+p+; experiment: in vitro antibacterial test (MIC); assay type: cell-based
[24] = test system: Staphylococcus aureus lOB; experiment: systemic infection of the mouse (ED50); assay type: in vivo, Maus; conditions: sc
Source text: (§1) Die Verbindungen der Formel I weisen wertvolle pharmakologische Eigenschaften auf, oder können als Zwischenprodukte zur Herstellung von solchen Verbindungen mit wertvollen pharmakologischen Eigenschaften verwendet werden. Verbindungen der Formel I, worin R1 Wasserstoff oder Methyl ist, Rz Hydroxybedeutet, R3 Carboxyl oder eine unter physiologischen Bedingungen spaltbare veresterte Carboxylgruppe bedeutet und R4 die unter Formel I angegebene Bedeutung hat, und pharmakologisch verwendbare Salze von solchen Verbindungen mit salzbildenden Gruppen haben antibakterielle Wirkungen. Beispielsweise sind sie in vitro gegen grampositive und gramnegative Kokken, z.B. Staphylococcus aureus, Streptococcus pyogenes, Streptococcus pneumoniae, Streptococcus faecalis, Neisseria meningitidis und Neisseria gonorrhoeae, und gegen gramnegative Stäbchenbakterien, wie Enterobacteriaceae, Haemophilus influenzae und Pseudomonas aeruginosa, und Anaerobier, z.B. Bacteroides sp., in minimalen Konzentrationen von ca. 0,01 bis ca. 64 µg/ml wirksam. In vivo, bei der systemischen Infektion der Maus, z.B. durch Staphylococcus aureus oder Streptococcus pyogenes, ergeben sich bei subkutaner oder oraler Applikation ED50 -Werte von ca. 0,3 bis ca. 30 mg/kg. […]

[25] = test system: Escherichia coli UB 1005; experiment: in vitro antibacterial test (MIC); assay type: cell-based; conditions: UB1005; Escherichia coli UB 1005, in vitro
Source text: as §1, with “mg/kg. Beispielsweise weisen Natrium-(5R,6S)-2-[3-(2-methyl-tetrazol-5-yl)-propyl]-6-hydroxymethyl-2-penem 3-carboxylat (Verbindung A) und (5R,65)-2-[3-(2-Methyl-1,3,4-oxadiazo1-5-yl)-propyl]-6-hydroxymethyl-2-penem-3-carbonsäure (Verbindung B) in dem genannten in-vitro-Test die folgenden Werte auf:” for “mg/kg.”

[26] = test system: Escherichia coli DC 2; experiment: in vitro antibacterial test (MIC); assay type: cell-based; conditions: DC2; Escherichia coli DC 2, in vitro
Source text: as §1, with “mg/kg. Beispielsweise weisen Natrium-(5R,6S)-2-[3-(2-methyl-tetrazol-5-yl)-propyl]-6-hydroxymethyl-2-penem 3-carboxylat (Verbindung A) und (5R,65)-2-[3-(2-Methyl-1,3,4-oxadiazo1-5-yl)-propyl]-6-hydroxymethyl-2-penem-3-carbonsäure (Verbindung B) in dem genannten in-vitro-Test die folgenden Werte auf:” for “mg/kg.”

Cn1nnc(CCCC2=C(C(=O)[O-])N3C(=O)[C@H](CO)[C@H]3S2)n1.[Na+] [Verbindung A, Natrium-(5R,6S)-2-[3-(2-methyl-tetrazol-5-yl)-propyl]-6-hydroxymethyl-2-penem 3-carboxylat]
MIC [1]: 32 µg/mL | MIC [2]; 856: 16 µg/mL | MIC [3]; 2359: 2 µg/mL | MIC ([4]; Neisseria gonorrhoeae): 0.01 µg/mL | MIC [5]: 0.2 µg/mL | MIC ([6]; Serratia marcescens, 344): 64 µg/mL | MIC ([7]; Escherichia coli, 16): 32 µg/mL | MIC [8]: 32 µg/mL | MIC ([9]; Neisseria meningitidis, 1316): 0.01 µg/mL | MIC ([10]; Pseudomonas aeruginosa): > 128 µg/mL | MIC ([11]; Streptococcus pneumoniae): 0.05 µg/mL | MIC ([12]; Escherichia coli, 205): 4 µg/mL | MIC [13]; 1518: 16 µg/mL | MIC [14]: 2 µg/mL | MIC [15]: 8 µg/mL | MIC ([16]; Proteus mirabilis, 1219): 8 µg/mL | MIC ([17]; Streptococcus pyogenes): 0.2 µg/mL | MIC ([18]; Proteus mirabilis, 774): 4 µg/mL | MIC ([19]; Haemophilus influenzae): 2 µg/mL | MIC ([20]; Klebsiella pneumoniae, 327): 4 µg/mL | MIC ([21]; Bacteroides fragilis): 0.5 µg/mL | MIC ([22]; Staphylococcus aureus, 10B): 0.2 µg/mL | MIC ([23]; Staphylococcus aureus): 0.2 µg/mL | ED50 ([24]; Staphylococcus aureus): 3 to 10 mg/kg | MIC [25]: 8 µg/mL | MIC [26]: 2 µg/mL

Cc1nnc(CCCC2=C(C(=O)O)N3C(=O)[C@H](CO)[C@H]3S2)o1 [Verbindung B, (5R,65)-2-[3-(2-Methyl-1,3,4-oxadiazo1-5-yl)-propyl]-6-hydroxymethyl-2-penem-3-carbonsäure]
MIC ([1]; Streptococcus faecalis D 3, in vitro, read-out: MIC): 32 µg/mL (≈ 98.4 µM) | MIC ([2]; Proteus rettgeri 856, in vitro, read-out: MIC): 4 µg/mL (≈ 12.3 µM) | MIC ([3]; Proteus morganii 2359, in vitro, read-out: MIC): 2 µg/mL (≈ 6.15 µM) | MIC ([4]; Neisseria gonorrhoeae 1317-4, in vitro, read-out: MIC): 0.01 µg/mL (≈ 0.0307 µM) | MIC [5]: 0.1 µg/mL (≈ 0.307 µM) | MIC ([6]; Serratia marcescens 344, in vitro, read-out: MIC): 16 µg/mL (≈ 49.2 µM) | MIC ([7]; Escherichia coli 16, in vitro, read-out: MIC): 16 µg/mL (≈ 49.2 µM) | MIC [8]: 16 µg/mL (≈ 49.2 µM) | MIC ([9]; Neisseria meningitidis 1316, in vitro, read-out: MIC): 0.05 µg/mL (≈ 0.154 µM) | MIC ([10]; Pseudomonas aeruginosa ATCC 12055, in vitro, read-out: MIC): > 32 µg/mL | MIC ([11]; Streptococcus pneumoniae III/84, in vitro, read-out: MIC): 0.05 µg/mL (≈ 0.154 µM) | MIC ([12]; Escherichia coli 205, in vitro, read-out: MIC): 1 µg/mL (≈ 3.07 µM) | MIC ([13]; Proteus morganii 1518, in vitro, read-out: MIC): 8 µg/mL (≈ 24.6 µM) | MIC [14]: 2 µg/mL (≈ 6.15 µM) | MIC [15]: 4 µg/mL (≈ 12.3 µM) | MIC ([16]; Proteus mirabilis 1219, in vitro, read-out: MIC): 4 µg/mL (≈ 12.3 µM) | MIC ([17]; Streptococcus pyogenes Aronson, in vitro, read-out: MIC): 0.1 µg/mL (≈ 0.307 µM) | MIC ([18]; Proteus mirabilis 774, in vitro, read-out: MIC): 2 µg/mL (≈ 6.15 µM) | MIC ([19]; Haemophilus influenzae NCTC 4560, in vitro, read-out: MIC): 2 µg/mL (≈ 6.15 µM) | MIC ([20]; Klebsiella pneumoniae 327, in vitro, read-out: MIC): 2 µg/mL (≈ 6.15 µM) | MIC ([21]; Bacteroides fragilis L 01, in vitro, read-out: MIC): 0.5 µg/mL (≈ 1.54 µM) | MIC ([22]; Staphylococcus aureus 10 B, in vitro, read-out: MIC): 0.2 µg/mL (≈ 0.615 µM) | MIC ([23]; Staphylococcus aureus 2999i+p+, in vitro, read-out: MIC): 0.2 µg/mL (≈ 0.615 µM) | ED50 ([24]; mouse, systemic infection by Staphylococcus aureus lOB, subcutaneous application, read-out: ED50): 0.3 to 30 mg/kg | MIC [25]: 2 µg/mL (≈ 6.15 µM) | MIC [26]: 1 µg/mL (≈ 3.07 µM)

Reference: patent EP0109362A1, “Hetereocyclic compounds, process for their preparation, pharmaceutical compositions containing them and their use” (CIBA-GEIGY AG, priority 1982, dated 1984)
